From publication PMC7321210, “Synthesis and Studies of the Inhibitory Effect of Hydroxylated Phenylpropanoids and Biphenols Derivatives on Tyrosinase and Laccase Enzymes” (Molecules, 2020)
“Also recorded” adds a separate entry of the source. Where two headings read alike, the source gives them in different places.

Tests used:
mushroom tyrosinase = assay: Spectrophotometric (UV-Vis) detection of tyrosinase inhibitory activity; format: biochemical; conditions: for tyrosinase inhibition in words, tyrosine versus dopamine as substrate: UV-Vis, absorbance at 311 or 472 nm, Figure 3
Method: Kinetic assays were carried out by measuring the appearance of the product of either tyrosine or dopamine oxidation in the reaction medium at 311 and 472 nm, respectively, in a Shimadzu UV-2501 spectrophotometer (Shimadzu, Kyoto, Japan) equipped with the UV-Probe software, using a tandem quartz cuvette (Hellma, Milan, Italy) with a 2 × 4.375-mm path length [1, 2, 51]. Briefly, one side of the dual chamber cuvette was filled with 1000 µl of mushroom tyrosinase solution in 50 mM phosphate buffer, pH 6.8, 166 Units/mL using tyrosine as substrate or a 16.6 Units/mL when dopamine was used as substrate. The other chamber was loaded with 980 µL of substrate solution (180 µM tyrosine or 18 µM dopamine) in 20 mM phosphate buffer (pH 6.8) added of either 20 µL of DMSO (control) or 20 µL of a 2 mM (0.2 mM in dopamine experiments) solution of tested inhibitors in DMSO. A background spectrum in the 250–700 nm range was acquired with a 2.0 nm slit and fast speed before starting the reaction. Thereafter, the solutions in the two chambers were mixed by inversion and the UV-Vis spectra were acquired at increasing time intervals. Spectra were recorded at 311 or 472 nm in the presence of the inhibitor before mixing, and after either 24 or 10 min, using tyrosine or dopamine as a substrate, respectively. Data processing was performed with UV Probe and OriginPro 2019 (v. 9.60) softwares.
The mushroom tyrosinase was used as purchased without further purification. All solutions (tyrosinase, substrates and inhibitors) were filtered through a 0.45-μm syringe filter, aliquoted in Eppendorf tubes, and stored in freezer. The relative concentration was determined spectrophotometrically (εtyrosine 274.6 nm = 1420 M^−1·cm^−1; εdopamine at 280 nm = 2670 M^−1·cm^−1; εtyrosinase at 280 nm = 1426 M^−1·cm^−1).
Tyrosine was dissolved in 50 mM phosphate buffer, pH 6.8, final concentration 80 µM and with the added inhibitor (final concentration 20 µM) and tyrosinase (83 U/mL). The absorbance values were determined after 24 min of incubation. In the presence of dopamine, experiments were performed using 10-fold diluted solutions, and the absorbance values were determined after 10 min of incubation.

Tenebrio molitor = assay: Insecticidal properties on mealworm larvae; format: in vivo; conditions: for pest or weed control at 6400 µg/mL: Tenebrio molitor, topical, 120 h, read-out: Mortality% (Mean ± SD)
Method: Late instar larvae of Tenebrio molitor from a twenty-year-old insect culture at the Research Institute on Terrestrial Ecosystems (National Research Council, Sassari, Italy) were used in the experiments. The species was reared on bran flour, with the integration of fresh vegetables, at 25 °C, 65% relative humidity and 16:8 hours light/darkness.
One hundred medium instar larvae were isolated in a petri dishes (diam. 50 mm). They were then immersed for three seconds in 2.5 mL of an acetone solution (concentration 6.4 mg/mL w:v) of one of the fourteen compounds listed in Table 3. In addition, a treatment with the commercial formulation Dimilin (WP, 25% a.i. diflubenzuron) (acetone solution, 25.6 mg/mL w:v) and a negative control (no treatment) were tested.
After treatment, the larvae were subdivided into five 20-specimen groups and reared for five days in a small PVC box (150 L × 120 W × 50 H mm) with the same feed and conditions as standard rearing. Mortality was recorded daily.
The statistical analysis was conducted with the R software (R Development Core Team 2016). Mortality data, expressed as a percentage, were arcsin(√x)-transformed to satisfy assumptions of normality. ANOVA was performed by the Duncan test for mean separation.

tyrosinase [1] = molecular target: T1, tyrosinase (Agaricus bisporus, UniProt C7FF04); conditions: cited from earlier work; for tyrosinase inhibitory activity compared with biphenol 1: spectrophotometric and electrochemical assays
laccase = assay: Laccase amperometric biosensor: IC50 and type of inhibition; format: biochemical; conditions: for VMAX, substrate + inhibitor, LAC: dopamine calibration 0-140 mM after inhibitor exposure, n=4 biosensors; for IC50: enzyme immobilized on biosensor, dopamine 50 µM, PBS pH 6.0; for Type of Inhibition Laccase: Lineweaver-Burk plot, biosensor exposed 30 min to twice the lowest inhibiting concentration
Method: (§1) Inhibition types and IC50 were assessed by means of carbon-based amperometric biosensors [61, 62, 63, 64, 65], that are described in the Supplementary Materials. During the experiments carried out to determine the IC50 values, the lowest inhibitory concentration of each compound was also evaluated.
(§2) To verify the inhibition types, the following protocol was used. An initial calibration with dopamine, ranging between 0 and 140 mM, was performed in order to ascertain the values of VMAX and KM. Another calibration with the same protocol was performed after having exposed the biosensors to twice the lowest inhibiting concentration of each inhibitor, in order to ensure the safe inhibition of enzymatic activity. The biosensors were exposed to the inhibitor for 30 min and after having reached a stabile baseline, a calibration with dopamine, ranging between 0 and 140 mM, was performed and the value of VMAX and KM were calculated. The variations of both VMAX and KM were then analyzed by using the Lineweaver-Burk plot in order to identify the type of inhibition induced by the tested compound. The statistical difference in VMAX and KM, before exposing the biosensors to the inhibitor and then afterwards, was calculated by means of a paired t-test (p < 0.05).
(§3) The biosensors were prepared starting from a Teflon™-insulated silver wire (30 mm in length; Ø = 125 μm),
(§4) Briefly, 1 mm of the silver wire was exposed and then introduced into a silica
(§5) capillary cylinder (10 mm in length; I.D. Ø = 180 μm, Polymicro Technologies, Phoenix, AZ, USA) partly
(§6) packed with graphite-loaded (55% w/w) epoxy resin. By mixing 850 mg of graphite with 500 mg of Araldite-
(§7) M and 200 mg of hardener, a preliminary disc electrode of carbon-composite was fabricated (Ø = 180 μm; area:
(§8) 2.5 × 10−4 cm2) by filling the silica capillary tubing with the mixture. The silver wire assured a good electrical
(§9) contact. After 24 h at 40 °C, the electrode surface was cleaned using a high-speed drill (Dremel® 300) equipped
(§10) with an aluminum oxide grinding wheel. On top of the electrode surface a 1 µl of Tyrosinase or Laccase
(§11) solution was deposited. After the complete evaporation of water at room temperature, the biosensor was
(§12) quickly dipped in the polyurethane solution in order to entrap the enzyme on the electrode surface, and after
(§13) the complete evaporation of the solvent biosensors were put to stabilize in PBS pH=6.0 overnight.
(§14) The electrochemical measurements were performed at room temperature in a classical three-electrode
(§15) electrochemical cell consisting of four biosensors as working electrodes, a reference electrode (Ag/AgCl in
(§16) Constant potential amperometry (CPA) was used for in-vitro calibrations and for inhibition evaluation
(§17) experiments by applying a constant potential of -50 mV against an Ag/AgCl reference electrode, by means of
(§18) a four-channel potentiostat (eDAQ Quadstat, e- Corder 410, eDAQ Europe, Poland) and the software Chart (v
(§19) 5.5, eDAQ Europe, Poland). Thus, once the stabilization of the baseline of biosensors was reached, increasing
(§20) volumes of a stock solution of dopamine 1 M were added in order to obtain different concentrations ranging

PC12 cells [2] = assay: Protection of PC12 cells against H2O2-induced oxidative stress (MTT); format: cell-based, rat; conditions: for change of cell viability versus H2O2 alone, in words: co-treatment with 100 μM H2O2, compounds 1 up to 20 μM; for H2O2 Damage Protection: concentration with significant increase in viability vs H2O2, co-treatment with 100 μM H2O2, n.p.: no protection
Method: (§21) 1.4 Viability and oxidative stress assays
(§22) PC12 cells, rat pheochromocytoma-derived cell line (ATCCCRL-1721) (passages 12–25) were maintained at 37
(§23) °C humidified air containing 5% CO2/95% atmospheric air and cultured in a 60 mm plastic culture plates with
(§24) Dulbecco’s modified Eagle’s medium supplemented with 10% horse serum, 5% fetal bovine serum and 1% of
(§25) penicillin/streptomycin. PC12 cells were treated for 24 h with the different compounds at different
concentrations ranging from 1 to 40 μM, to evaluate their eventual toxicity. Then, in order to assess the
eventual compounds’ protection properties, PC12 cell treated with hydrogen peroxide (100μM) in association
with increasing concentration of the above-mentioned molecules, from 1 up to 20 μM.
(§26) For all treatments cell viability was measured by means of MTT assay, as explained in
(§27) At the end of the exposure time of each experiment, the cell viability was assessed by means of MTT (3-(4,5-
(§28) dimethyl-thiazol-2-yl)-2,5-diphenyltetrazoliumbromide) assay. For this purpose, 1 mg/mL of MTT was added
(§29) to each sample and incubated for 4 h at 37 °C. Only viable cells are able to convert the soluble dye MTT into
(§30) the insoluble formazan crystals. After the incubation the MTT supernatant solution was removed, the cells
(§31) were washed in phosphate-buffered saline (PBS) and centrifuged while the pellet was dissolved in 2 mL of
(§32) isopropanol. After centrifugation of the solution at 4,000 rpm for 5 min, the absorbance for each sample was
(§33) assessed by means of a Bauty Diagnostic Microplate Reader at 578 nm. All experiments were performed in 24-
(§34) well plates (1 × 10^5 cells/mL/well) and repeated in triplicate.

PC12 cells [3] = assay: Viability of PC12 cells (MTT assay); format: cell-based, rat; conditions: for Toxic Concentration: cell viability < 80%, screening from 1 to 40 μM, 24 h; for toxicity to cells in words: significant (p < 0.05) decrease in viability vs control, from 5 μM up to 40 μM
Method: Initially, the inhibitor concentrations on PC12 cells, i.e., a rat pheochromocytoma-derived cell line, were screened to assess the possible cytotoxicity of the molecules under study [55].
as §21, §22, §23, §24, §25
concentrations ranging from 1 to 40 μM, to evaluate their eventual toxicity.
as §26
the following paragraph [17].
as §27, §28, §29, §30, §31, §32, §33, §34

tyrosinase [4] = molecular target: T1, tyrosinase; assay: Tyrosinase amperometric biosensor: IC50 and type of inhibition; format: biochemical; conditions: for Type of Inhibition Tyrosinase: Lineweaver-Burk plot, biosensor exposed 30 min to twice the lowest inhibiting concentration; for VMAX, substrate + inhibitor, TYR: dopamine calibration 0-140 mM after inhibitor exposure, n=4 biosensors;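 for all read-outs here: Carbon-composite amperometric tyrosinase biosensors with polyurethane-entrapped enzyme, calibrated in a three-electrode cell against Ag/AgCl at room temperature, before versus after inhibitor exposure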
Method: as §1, §2, §3, §4, §5, §6, §7, §8, §9, §10, §11, §12, §13, §14, §15, §16, §17, §18, §19, §20

[5] = larvae immersed three seconds in 2.5 mL acetone solution 6.4 mg/mL, reared five days, DFB as Dimilin WP 25% a.i., 25.6 mg/mL

T1 sequence (C7FF04 2-392): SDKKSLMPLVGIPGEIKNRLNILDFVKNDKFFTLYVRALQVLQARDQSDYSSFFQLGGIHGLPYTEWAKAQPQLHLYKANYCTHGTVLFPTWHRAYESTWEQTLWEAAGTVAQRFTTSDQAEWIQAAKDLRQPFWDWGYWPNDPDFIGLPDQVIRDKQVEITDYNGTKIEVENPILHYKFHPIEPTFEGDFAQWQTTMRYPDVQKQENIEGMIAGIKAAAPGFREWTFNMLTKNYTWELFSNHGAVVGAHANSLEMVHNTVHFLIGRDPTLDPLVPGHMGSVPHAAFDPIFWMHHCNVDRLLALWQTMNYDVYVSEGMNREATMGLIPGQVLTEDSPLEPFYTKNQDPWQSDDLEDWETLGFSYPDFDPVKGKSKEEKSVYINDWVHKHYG

SMILES	VMAX, substrate + inhibitor, LAC (laccase) [nA]	IC50 (laccase) [nM]	Type of Inhibition Laccase (laccase)	VMAX, substrate + inhibitor, TYR (tyrosinase [4]) [nA]	% inhibition of tyrosinase (mushroom tyrosinase; comparable with both substrates, tyrosine 80 µM, inhibitor 20 µM, 24 min, dopamine 10-fold diluted solutions, 10 min)	tyrosinase inhibition in words, tyrosine versus dopamine as substrate (mushroom tyrosinase)	pest or weed control at 6400 µg/mL (Tenebrio molitor; [5]) [%]	type of tyrosinase inhibition (tyrosinase [1])	tyrosinase inhibitory activity compared with biphenol 1 (tyrosinase [1])	pest or weed control at 6400 µg/mL (Tenebrio molitor) [%]	change of cell viability versus H2O2 alone, in words (PC12 cells [2])	H2O2 Damage Protection (PC12 cells [2])	Toxic Concentration (PC12 cells [3])	Type of Inhibition Tyrosinase (tyrosinase [4])	toxicity to cells in words (PC12 cells [3])	insecticidal activity in words (Tenebrio molitor; mealworm larvae, compared with DFB)
Oc1ccc(-c2ccc(O)cc2)cc1 [Compound 1, 4,4′-dihydroxy-biphenyl, reference compound]	–	–	–	–	–	predominant inhibition of tyrosine oxidation	2 ± 2.74	classical reversible competitive inhibitor	–	–	–	–	–	–	–	–
Oc1ccc(-c2ccc(O)c(O)c2)cc1O [Compound 2]	–	–	–	–	–	–	4 ± 5.48	–	higher tyrosinase inhibitory activity than that of biphenol 1	–	–	–	–	–	–	–
C=CCc1cc(-c2ccc(O)c(CC=C)c2)ccc1O [Compound 3]	–	–	–	–	–	–	3 ± 2.74	–	higher tyrosinase inhibitory activity than that of biphenol 1	–	–	–	–	–	–	–
Oc1ccccc1-c1ccccc1O [Compound 4]	–	–	–	–	–	–	–	–	–	3 ± 4.47	–	–	–	–	–	–
Oc1cccc(O)c1-c1c(O)cccc1O [Compound 5]	–	–	–	–	–	–	16 ± 9.62	–	higher tyrosinase inhibitory activity than that of biphenol 1	–	–	–	–	–	–	–
COc1cc(O)cc(-c2cc(O)cc(OC)c2OC)c1OC [Compound 6]	–	–	–	–	–	–	1 ± 2.24	–	higher tyrosinase inhibitory activity than that of biphenol 1	–	–	–	–	–	–	–
COc1cc(C=CC(C)=O)ccc1O [Compound 8]	78.7±8.8	218	–	–	–	strongly inhibited the oxidation of dopamine compared to that of tyrosine; also recorded: selectivity towards the diphenolasic phase	10 ± 7.07	–	–	–	significant decrease (p < 0.05 vs H2O2) in cells viability at all concentrations tested	n.p.	40 µM	–	–	–
CC(=O)CCc1ccc(O)c(O)c1 [Compound 9]	90.5±7.4	2240	competitively; also recorded: competitive	183.2±11.1	–	strongly inhibited the oxidation of dopamine compared to that of tyrosine; also recorded: selectivity towards the diphenolasic phase	4 ± 6.51	–	–	–	significant decrease (p < 0.05 vs H2O2) at a concentration of 20 μM	n.p.	>10 µM	competitively; also recorded: competitive	–	–
COc1cc(C(=O)/C=C/c2cc(OC)c(OC)c(-c3cc(/C=C/C(=O)c4ccc(O)c(OC)c4)cc(OC)c3OC)c2)ccc1O [Compound 15]	93.8±2.9	209	competitively; also recorded: competitive	54.3±2.6	–	predominant inhibition of tyrosine oxidation	0	–	–	–	–	–	>5 µM	competitively; also recorded: competitive	toxic to cells	–
COc1ccc(O)c(C(=O)/C=C/c2cc(OC)c(OC)c(-c3cc(/C=C/C(=O)c4cc(OC)ccc4O)cc(OC)c3OC)c2)c1 [Compound 16]	139.9±6.4	987	competitively; also recorded: competitive	22.2±0.6	about 70%	–	–	–	–	–	–	–	>5 µM	competitively; also recorded: competitive	toxic to cells	–
CC(C)=CCCC(C)(O)/C=C/c1cc(-c2ccc(O)c(/C=C/C(C)(O)CCC=C(C)C)c2)ccc1O (stereo not shown) [Compound 20, 3,3’-bis((E)-3-hydroxy-3,7-dimethylocta-1,6-dien-1-yl)-[1,1’-biphenyl]-4,4’-diol]	151.6±12.1	118	competitively; also recorded: competitive	77.4±4.3	–	strongly inhibited the oxidation of dopamine compared to that of tyrosine; also recorded: selectivity towards the diphenolasic phase	~65	–	–	–	–	–	–	competitively; also recorded: competitive	–	some insecticidal activity
O=C(NC(=O)c1c(F)cccc1F)Nc1ccc(Cl)cc1 [DFB, N-[(4-chlorophenyl)carbamoyl]-2,6-difluorobenzamide, reference compound]	–	–	–	–	–	–	–	–	–	97 ± 4.47	–	–	–	–	–	–

The next lines start with results.

VMAX, substrate + inhibitor, LAC (laccase) [nA]	IC50 (laccase) [nM]	Type of Inhibition Laccase (laccase)	VMAX, substrate + inhibitor, TYR (tyrosinase [4]) [nA]	% inhibition of tyrosinase (mushroom tyrosinase; comparable with both substrates, tyrosine 80 µM, inhibitor 20 µM, 24 min, dopamine 10-fold diluted solutions, 10 min)	SMILES	tyrosinase inhibition in words, tyrosine versus dopamine as substrate (mushroom tyrosinase)	pest or weed control at 6400 µg/mL (Tenebrio molitor; [5]) [%]	type of tyrosinase inhibition (tyrosinase [1])	tyrosinase inhibitory activity compared with biphenol 1 (tyrosinase [1])	pest or weed control at 6400 µg/mL (Tenebrio molitor) [%]	change of cell viability versus H2O2 alone, in words (PC12 cells [2])	H2O2 Damage Protection (PC12 cells [2])	Toxic Concentration (PC12 cells [3])	Type of Inhibition Tyrosinase (tyrosinase [4])	toxicity to cells in words (PC12 cells [3])	insecticidal activity in words (Tenebrio molitor; mealworm larvae, compared with DFB)
91.0±9.2	62	mixed	33.0±1.1	–	COc1cc(/C=C/C(=O)c2ccc(OC)c(OC)c2)ccc1O [Compound 11]	predominant inhibition of tyrosine oxidation	4 ± 2.24	–	–	–	–	–	>10 µM	competitive	toxic to cells	–
49.5±6.1	1040	competitive	63.0±1.962	–	COc1cc(C(=O)/C=C/c2ccc(OC)c(OC)c2)ccc1O [Compound 12]	predominant inhibition of tyrosine oxidation	0	–	–	–	–	–	>1 µM	noncompetitive	toxic to cells	–
114.4±9.5	–	competitive	37.3 ±4.0	–	COc1cc(/C=C/C(=O)C[C@@H]2O[C@H](CO)[C@@H](O)[C@H](O)[C@H]2O)ccc1O [Compound 13]	predominant inhibition of tyrosine oxidation	–	–	–	–	significant decrease (p < 0.05 vs H2O2) at a concentration of 20 μM	n.p.	>20 µM	uncompetitive or mixed; also recorded: uncompetitive	–	–
110.9±2.4	–	mixed	48.8±4.67	–	COc1cc(/C=C/C(=O)c2cc(OC)c(OC)c(-c3cc(C(=O)/C=C/c4ccc(O)c(OC)c4)cc(OC)c3OC)c2)ccc1O [Compound 14]	predominant inhibition of tyrosine oxidation	0	–	–	–	–	–	>5 µM	mixed	toxic to cells	–
96.5±8.3	184	competitive	73.7±26	–	CCOC(=O)/C=C/c1cc(OC)c(O)c(-c2cc(/C=C/C(=O)OCC)cc(OC)c2O)c1 [Compound 17]	strongly inhibited the oxidation of dopamine compared to that of tyrosine; also recorded: selectivity towards the diphenolasic phase	–	–	–	–	–	n.p.	none	uncompetitive or mixed; also recorded: mixed	–	–
